From BigSolDB 2.1

O=C(O)c1ccc(C(=O)O)cc1
Settings	solubility (mole fraction)
in 1,2-diethoxyethane, 293.15 K	0.000214
in 1,2-diethoxyethane, 303.3 K	0.000251
in 1,2-diethoxyethane, 313.25 K	0.000294
in 1,2-diethoxyethane, 323.35 K	0.000344
in 1,2-diethoxyethane, 333.65 K	0.000403
in 1,2-diethoxyethane, 343.55 K	0.000477
in THF, 293.15 K	0.000882
in THF, 303.15 K	0.000995
in THF, 313.45 K	0.00115
in THF, 323.35 K	0.0014
in THF, 329.35 K	0.00164
in acetophenone, 303.15 K	1.07e-05
in acetophenone, 313.15 K	1.87e-05
in acetophenone, 323.15 K	3.47e-05
in acetophenone, 332.85 K	6.17e-05
in acetophenone, 343.3 K	0.000116
in cyclohexanone, 293.15 K	0.000167
in cyclohexanone, 303.15 K	0.000183
in cyclohexanone, 313.15 K	0.000231
in cyclohexanone, 323.3 K	0.000302
in cyclohexanone, 333.4 K	0.000385
in cyclohexanone, 343.85 K	0.00053

O=C(O)c1ccccc1C(=O)O
Settings	solubility (mole fraction)
in 1,2-diethoxyethane, 293.15 K	0.0154
in 1,2-diethoxyethane, 303.25 K	0.0177
in 1,2-diethoxyethane, 313.2 K	0.02
in 1,2-diethoxyethane, 323.05 K	0.0228
in 1,2-diethoxyethane, 333.15 K	0.0261
in 1,2-diethoxyethane, 343.05 K	0.0302
in THF, 293.25 K	0.0697
in THF, 303.15 K	0.0754
in THF, 313.45 K	0.0826
in THF, 323.15 K	0.0899
in THF, 329.05 K	0.0949
in acetophenone, 303.35 K	0.0056
in acetophenone, 313.35 K	0.00724
in acetophenone, 323.35 K	0.00933
in acetophenone, 332.95 K	0.0119
in acetophenone, 343.55 K	0.0152
in cyclohexanone, 293.15 K	0.0176
in cyclohexanone, 303.15 K	0.0212
in cyclohexanone, 313.15 K	0.0257
in cyclohexanone, 323.15 K	0.031
in cyclohexanone, 333.15 K	0.037
in cyclohexanone, 343.4 K	0.0459

O=C(O)c1cccc(C(=O)O)c1
Settings	solubility (mole fraction)
in 1,2-diethoxyethane, 293.3 K	0.00265
in 1,2-diethoxyethane, 303.15 K	0.00293
in 1,2-diethoxyethane, 313.15 K	0.0033
in 1,2-diethoxyethane, 322.75 K	0.00376
in 1,2-diethoxyethane, 332.65 K	0.00433
in 1,2-diethoxyethane, 342.45 K	0.00502
in THF, 293.35 K	0.0141
in THF, 303.15 K	0.0154
in THF, 313.45 K	0.0169
in THF, 322.85 K	0.0185
in THF, 328.75 K	0.0196
in acetophenone, 303.15 K	0.000725
in acetophenone, 313.15 K	0.000858
in acetophenone, 323.05 K	0.00105
in acetophenone, 332.95 K	0.00135
in acetophenone, 342.95 K	0.00175
in cyclohexanone, 293.35 K	0.00239
in cyclohexanone, 303.15 K	0.00302
in cyclohexanone, 313.15 K	0.00385
in cyclohexanone, 322.75 K	0.00469
in cyclohexanone, 332.75 K	0.00571
in cyclohexanone, 342.85 K	0.00697
